From patent US9006246B2, “Tetrahydrocarboline derivative” (Ono Pharmaceutical Co., Ltd., priority 2010, dated 2015)
Where a name gives a salt, the structure may show the parent alone.

Molecular target: human ENPP2 (Homo sapiens (Human), UniProt Q13822)
Assay: Measurement of human ENPP2 inhibitory activity
Type: biochemical
Conditions: 16:0-LPC substrate, 37° C., 24 hours; for inhibition at 1 µM: 1 μM test compound, read-out: ENPP2 inhibition rate(%) (1 μM)
Experimental: 10 μL of a test compound solution (10% dimethyl sulfoxide) at each concentration and 40 μL of a 5 μg/mL human ENPP2 solution (buffer A: 100 mmol/L Tris-HCl (pH 9.0), 500 mmol/L NaCl, 5 mmol/L MgCl2, 0.05% Triton X-100) were mixed, 50 μL of a 2 mmol/L 16:0-lysophosphatidylcholine (LPC) solution (buffer A) was further added to react at 37° C. for 24 hours. Subsequently, to 10 μL of the reaction solution was added 90 μL of a measurement buffer (0.5 mmol/L aminoantipyrine, 0.3 mmol/L N-ethyl-N-(2-hydroxy-3-sulfopropyl)-3-methylaniline, 1 U/mL peroxidase, 3 U/mL choline oxidase, 100 mmol/L Tris-HCl (pH 8.5), 5 mmol/L CaCl2) to react at 37° C. for 20 minutes, and spectrophotometric determination was performed at 555 nm.
Using a standard curve, a choline production amount (enzyme activity) in each test compound was calculated, and the inhibitory activity rate of each test compound was calculated, wherein the enzyme activity in a positive control to which a test compound is not added, was a 0% inhibition rate, and the enzyme activity in a negative control to which a test compound and human ENPP2 are not added, were 100% inhibition. Further, concerning the present compounds shown in Table 3, an IC50 value was calculated from inhibitory activity rate at each concentration.

SMILES	inhibition at 1 µM [%]	IC50 [nM]
COC(=O)CCCCC(=O)N1CCc2c(n(CCCc3ccccc3)c3ccccc23)C1 [Example 2, methyl 6-oxo-6-[9-(3-phenylpropyl)-1,3,4,9-tetrahydro-2H-beta-carbolin-2-yl]hexanoate]	67.7	
O=C(O)CCCCCC(=O)N1CCc2c(n(CCCc3ccc(F)cc3)c3ccccc23)C1 [Example 3(19), 7-{9-[3-(4-fluorophenyl)propyl]-1,3,4,9-tetrahydro-2H-beta-carbolin-2-yl}-7-oxoheptanoic acid]	95.1	
O=C(O)CCCCC(=O)N1CCc2c(n(CCC3CCCCC3)c3ncccc23)C1 [Example 9(2), 6-[9-(2-cyclohexylethyl)-5,6,8,9-tetrahydro-7H-pyrido[4′,3′:4,5]pyrrolo[2,3-b]pyridin-7-yl]-6-oxohexanoic acid]		16
O=C(O)CCCC(=O)N1CCc2c(n(CCCc3ccccc3)c3ncccc23)C1 [Example 9(26), 5-oxo-5-[9-(3-phenylpropyl)-5,6,8,9-tetrahydro-7H-pyrido[4′,3′:4,5]pyrrolo[2,3-b]pyridin-7-yl]pentanoic acid]	59.3	
O=C(O)CCCCC(=O)N1CCc2c(n(CCOc3ccccc3)c3ncccc23)C1 [Example 9(28), 6-oxo-6-[9-(2-phenoxyethyl)-5,6,8,9-tetrahydro-7H-pyrido[4′,3′:4,5]pyrrolo[2,3-b]pyridin-7-yl]hexanoic acid]	76.6	
O=C(O)CCCCC(=O)N1CCc2c(n(CCSc3ccccc3)c3ncccc23)C1 [Example 9(31), 6-oxo-6-{9-[2-(phenylthio)ethyl]-5,6,8,9-tetrahydro-7H-pyrido[4′,3′:4,5]pyrrolo[2,3-b]pyridin-7-yl}hexanoic acid]	82.4	
O=C(O)CCCCC(=O)N1CCc2c(n(Cc3cccs3)c3ncccc23)C1 [Example 9(59), 6-oxo-6-[9-(2-thienylmethyl)-5,6,8,9-tetrahydro-7H-pyrido[4′,3′:4,5]pyrrolo[2,3-b]pyridin-7-yl]hexanoic acid]	69.3	
O=C(O)CCCCC(=O)N1CCc2c(n(Cc3cccc(F)c3)c3ncccc23)C1 [Example 9, 6-[9-(3-fluorobenzyl)-5,6,8,9-tetrahydro-7H-pyrido[4′,3′:4,5]pyrrolo[2,3-b]pyridin-7-yl]-6-oxohexanoic acid]		91
CC(C)(CCCC(=O)N1CCc2c(n(Cc3ccccc3)c3ccccc23)C1)C(=O)O [Example 12(27), 6-(9-benzyl-1,3,4,9-tetrahydro-2H-beta-carbolin-2-yl)-2,2-dimethyl-6-oxohexanoic acid]	91.9	
CC(C)(CCCC(=O)N1CCc2c(n(Cc3ccc(Cl)s3)c3ncccc23)C1)C(=O)O [Example 12(42), 6-{9-[(5-chloro-2-thienyl)methyl]-5,6,8,9-tetrahydro-7H-pyrido[4′,3′:4,5]pyrrolo[2,3-b]pyridin-7-yl}-2,2-dimethyl-6-oxohexanoic acid]		9.6
CC(C)(CCCC(=O)N1CCc2c(n(Cc3ccc(F)cc3F)c3ncccc23)C1)C(=O)O [Example 12(97), 6-[9-(2,4-difluorobenzyl)-5,6,8,9-tetrahydro-7H-pyrido[4′,3′:4,5]pyrrolo[2,3-b]pyridin-7-yl]-2,2-dimethyl-6-oxohexanoic acid]		6.7
CC(C)(CCC(=O)N1CCc2c(n(Cc3ccccc3)c3ccccc23)C1)CC(=O)O [Example 15, 6-(9-benzyl-1,3,4,9-tetrahydro-2H-beta-carbolin-2-yl)-3,3-dimethyl-6-oxohexanoic acid]	84.1	

The remaining lines, values ahead:

inhibition at 1 µM [%]	IC50 [nM]	SMILES
89.6		CC(C)(OCC(=O)N1CCc2c(n(Cc3cccc(F)c3)c3ncccc23)C1)C(=O)O [Example 18(1), 2-{2-[9-(3-fluorobenzyl)-5,6,8,9-tetrahydro-7H-pyrido[4′,3′:4,5]pyrrolo[2,3-b]pyridin-7-yl]-2-oxoethoxy}-2-methylpropanoic acid]
	83	CC(C)(CNCC(=O)N1CCc2c(n(Cc3cccc(F)c3)c3ncccc23)C1)C(=O)O [Example 20, 3-({2-[9-(3-fluorobenzyl)-5,6,8,9-tetrahydro-7H-pyrido[4′,3′:4,5]pyrrolo[2,3-b]pyridin-7-yl]-2-oxoethyl}amino)-2,2-dimethylpropanoic acid hydrochloride]
96.2		CC1CN(C(=O)CCCC(C)(C)C(=O)O)Cc2c1c1cccnc1n2Cc1cccc(F)c1 (stereo not drawn) [Example 23, 6-[9-(3-fluorobenzyl)-5-methyl-5,6,8,9-tetrahydro-7H-pyrido[4′,3′:4,5]pyrrolo[2,3-b]pyridin-7-yl]-2,2-dimethyl-6-oxohexanoic acid]
98.2		O=C(C[C@H]1CC[C@H](C(=O)O)CC1)N1CCc2c(n(Cc3ccc(F)cc3F)c3ncccc23)C1 [Example 31(32), trans-4-{2-[9-(2,4-difluorobenzyl)-5,6,8,9-tetrahydro-7H-pyrido[4′,3′:4,5]pyrrolo[2,3-b]pyridin-7-yl]-2-oxoethyl}cyclohexanecarboxylic acid]
98.6		O=C(C[C@H]1CC[C@H](C(=O)O)CC1)N1CCc2c(n(Cc3ccc(Cl)cc3)c3ncccc23)C1 [Example 31(34), trans-4-{2-[9-(4-chlorobenzyl)-5,6,8,9-tetrahydro-7H-pyrido[4′,3′:4,5]pyrrolo[2,3-b]pyridin-7-yl]-2-oxoethyl}cyclohexanecarboxylic acid]
	11	O=C(CC12CCC(C(=O)O)(CC1)CC2)N1CCc2c(n(Cc3cccc(F)c3)c3ncccc23)C1 [Example 31(127), 4-{2-[9-(3-fluorobenzyl)-5,6,8,9-tetrahydro-7H-pyrido[4′,3′:4,5]pyrrolo[2,3-b]pyridin-7-yl]-2-oxoethyl}bicyclo[2.2.2]octane-1-carboxylic acid]
99		O=C(CC12CCC(C(=O)O)(CC1)CC2)N1CCc2c(n(Cc3cc(F)cc(F)c3)c3ncccc23)C1 [Example 31(128), 4-{2-[9-(3,5-difluorobenzyl)-5,6,8,9-tetrahydro-7H-pyrido[4′,3′:4,5]pyrrolo[2,3-b]pyridin-7-yl]-2-oxoethyl}bicyclo[2.2.2]octane-1-carboxylic acid]
99.8		O=C(CC12CCC(C(=O)O)(CC1)CC2)N1CCc2c(n(Cc3cc(F)c(F)cc3F)c3ncccc23)C1 [Example 31(129), 4-{2-oxo-2-[9-(2,4,5-trifluorobenzyl)-5,6,8,9-tetrahydro-7H-pyrido[4′,3′:4,5]pyrrolo[2,3-b]pyridin-7-yl]ethyl}bicyclo[2.2.2]octane-1-carboxylic acid]
	11	O=C(CC12CCC(C(=O)O)(CC1)CC2)N1CCc2c(n(Cc3ccc(Cl)cc3)c3ncccc23)C1 [Example 31(140), 4-{2-[9-(4-chlorobenzyl)-5,6,8,9-tetrahydro-7H-pyrido[4′,3′:4,5]pyrrolo[2,3-b]pyridin-7-yl]-2-oxoethyl}bicyclo[2.2.2]octane-1-carboxylic acid]
99.5		CC1(C)[C@@H](CC(=O)N2CCc3c(n(Cc4ccc(Cl)cc4F)c4ncccc34)C2)CC[C@@]1(C)C(=O)O [Example 31(160), (1R,3R)-3-{2-[9-(4-chloro-2-fluorobenzyl)-5,6,8,9-tetrahydro-7H-pyrido[4′,3′:4,5]pyrrolo[2,3-b]pyridin-7-yl]-2-oxoethyl}-1,2,2-trimethylcyclopentanecarboxylic acid]
99.5		CC1(C)[C@@H](CC(=O)N2CCc3c(n(Cc4ccc(F)cc4)c4ncccc34)C2)CC[C@@]1(C)C(=O)O [Example 31(162), (1R,3R)-3-{2-[9-(4-fluorobenzyl)-5,6,8,9-tetrahydro-7H-pyrido[4′,3′:4,5]pyrrolo[2,3-b]pyridin-7-yl]-2-oxoethyl}-1,2,2-trimethylcyclopentanecarboxylic acid]
	13	CC1(C)[C@@H](CC(=O)N2CCc3c(n(Cc4ccc(F)c(Cl)c4)c4ncccc34)C2)CC[C@@]1(C)C(=O)O [Example 31(169), (1R,3R)-3-{2-[9-(3-chloro-4-fluorobenzyl)-5,6,8,9-tetrahydro-7H-pyrido[4′,3′:4,5]pyrrolo[2,3-b]pyridin-7-yl]-2-oxoethyl}-1,2,2-trimethylcyclopentanecarboxylic acid]
98		O=C(CC12CCC(C(=O)O)(CC1)CC2)N1CCc2c(n(Cc3ccc(F)c(F)c3)c3ncccc23)C1 [Example 31(170), 4-{2-[9-(3,4-difluorobenzyl)-5,6,8,9-tetrahydro-7H-pyrido[4′,3′:4,5]pyrrolo[2,3-b]pyridin-7-yl]-2-oxoethyl}bicyclo[2.2.2]octane-1-carboxylic acid]
98.7		O=C(CC12CCC(C(=O)O)(CC1)C2)N1CCc2c(n(Cc3cccc(F)c3)c3ncccc23)C1 [Example 31(181), 4-{2-[9-(3-fluorobenzyl)-5,6,8,9-tetrahydro-7H-pyrido[4′,3′:4,5]pyrrolo[2,3-b]pyridin-7-yl]-2-oxoethyl}bicyclo[2.2.1]heptane-1-carboxylic acid]
98.9		O=C(CC12CCC(C(=O)O)(CC1)C2)N1CCc2c(n(Cc3ccc(F)cc3F)c3ncccc23)C1 [Example 31(182), 4-{2-[9-(2,4-difluorobenzyl)-5,6,8,9-tetrahydro-7H-pyrido[4′,3′:4,5]pyrrolo[2,3-b]pyridin-7-yl]-2-oxoethyl}bicyclo[2.2.1]heptane-1-carboxylic acid]
